Where two headings read alike, the source gives them in different places.
Key:
MCF-7 cells = experiment: Breast Cancer Cell Viability Assay (MCF7, CellTiter-Glo); conditions: for MCF7 Viability Assay: % Viability relative to Fulvestrant: 5 days, 100-{100*[(100-% viability of Example)/(100-% viability of Fulvestrant)]};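 on all read-outs here: CellTiter-Glo luminescence read-out, background from cell-free medium subtracted, viability expressed against untreated cells, ten-point 1:5 compound dilution series spanning 10 to 0.000005 µM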
ER-α = molecular target: T1, ER-α (Homo sapiens, UniProt P03372); experiment: Breast Cancer Cell ER-α In-Cell Western Assay (SP1); type: cell-based; conditions: MCF7 cells, 4 hours; 100-{100*[(100-% ER level of Example)/(100-% ER level of Fulvestrant)]}
T1 construct: endogenous in cells; host or cells: MCF7
T1 sequence (P03372 1-595): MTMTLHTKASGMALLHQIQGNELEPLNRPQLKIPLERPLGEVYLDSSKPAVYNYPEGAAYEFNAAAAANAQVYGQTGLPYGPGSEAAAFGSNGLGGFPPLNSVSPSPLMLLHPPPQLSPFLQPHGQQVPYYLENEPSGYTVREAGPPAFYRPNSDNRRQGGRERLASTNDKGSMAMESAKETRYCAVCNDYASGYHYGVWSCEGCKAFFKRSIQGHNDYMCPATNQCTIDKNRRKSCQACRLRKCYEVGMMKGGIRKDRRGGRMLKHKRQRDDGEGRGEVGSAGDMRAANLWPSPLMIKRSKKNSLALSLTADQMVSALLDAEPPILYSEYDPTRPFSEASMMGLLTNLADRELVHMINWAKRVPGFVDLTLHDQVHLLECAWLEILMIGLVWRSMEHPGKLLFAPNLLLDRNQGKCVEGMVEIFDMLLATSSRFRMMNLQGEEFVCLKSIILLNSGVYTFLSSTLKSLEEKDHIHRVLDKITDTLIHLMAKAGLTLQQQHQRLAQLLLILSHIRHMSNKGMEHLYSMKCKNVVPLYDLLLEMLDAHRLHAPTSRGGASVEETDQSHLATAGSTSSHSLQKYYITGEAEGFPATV
Protocol: MCF7 cells were trypsinized and washed twice in Phenol Red Free RPMI containing 5% Charcoal Dextran Stripped serum with 20 mM HEPES and NEAA, then adjusted to a concentration of 200,000 cells per mL with the same medium. […] At 4 hours post compound addition, the cells were fixed by adding 16 μL of 30% formalin to the 32 μL of cells and compound (10% formalin final concentration) for 20 minutes. Cells were then washed twice with PBS Tween 0.1% and then permeabilized in PBS 0.1% Triton (50 μl/well) for additional 15 minutes. The PBS 0.1% triton was decanted, and the cells were washed: LI-COR blocking buffer (50 μL/well) was added, the plate was spun at 3000 rpm, and then the blocking buffer was decanted. Additional LI-COR blocking buffer (50 μL/well) was added, and the cells were incubated overnight at 4° C. The blocking buffer was decanted, and the cells were incubated overnight at 4° C. with SP1 (Thermo Scientific) anti-ER rabbit monoclonal antibody diluted 1:1000 in LI-COR blocking buffer/0.1% Tween-20. Wells which were treated with blocking buffer with Tween but no antibody were used as a background control. Wells were washed twice with PBS Tween 0.1% to remove free SP1 antibodies, and the cells were incubated at room temp for 60-90 minutes in LI-COR goat anti-rabbit IRDye™ 800 CW (1:1000) and DRAQ5 DNA dye (1:10000 of 5 mM stock solution) diluted in LI-COR blocking buffer containing 0.1% Tween-20 and 0.01% SDS. Cells were then washed with 0.1% Tween-20/PBS three times. Plates were scanned on a LI-COR Odyssey infrared imaging system. Integrated intensities in the 800 nm channel and 700 nm channel were measured to determine levels of ER-α and DNA respectively. Percent ER levels were determined as follows: (Integrated intensity 800 nm sample/integrated intensity 700 nm sample)/(Integrated intensity 800 nm untreated cells/integrated intensity 700 nm untreated cells)×100=% ER-α levels.

[1] = read-out: MCF7 Viability Assay IC50, 5 days' compound exposure

Structure (SMILES) | IC50 (MCF-7 cells; [1]) | ER-α In-Cell Western Assay (SP1): % ER-α remaining relative to Fulvestrant (ER-α) | IC50 (MCF-7 cells; read-out: MCF7 Viability Assay IC50, 5 days' compound exposure, cell printed without unit) | MCF7 Viability Assay: % Viability relative to Fulvestrant (MCF-7 cells)
CC1=C(c2ccc(C#N)cc2)C(c2ccc(OC[C@H](C)N3CC[C@@H](C)C3)cc2)Oc2ccc(O)cc21 (stereo partly drawn) [4-(6-hydroxy-4-methyl-2-(4-((S)-2-((R)-3-methylpyrrolidin-1-yl)propoxy)phenyl)-2H-chromen-3-yl)benzonitrile, reference compound] | 10 nM | – | – | 15%
CC1=C(c2ccc(Cl)cc2)C(c2ccc(OCCN3CC(CF)C3)cc2)Oc2ccc(O)cc21 (stereo not shown) [Example 4, 3-(4-Chlorophenyl)-2-(4-(2-(3-(fluoromethyl)azetidin-1-yl)ethoxy)phenyl)-4-methyl-2H-chromen-6-ol] | 1.2 nM | 3% | – | 3%
CC1=C(c2ccc(C#N)cc2)C(c2ccc(OCCN3CC(CF)C3)cc2)Oc2ccc(O)cc21 (stereo not shown) [Example 7, 4-(2-(4-(2-(3-(Fluoromethyl)azetidin-1-yl)ethoxy)phenyl)-6-hydroxy-4-methyl-2H-chromen-3-yl)benzonitrile] | 3.5 nM | 2% | – | 0%
CC1=C(c2ccc(F)c(F)c2)C(c2ccc(OCCN3CC(CF)C3)cc2)Oc2ccc(O)cc21 (stereo not shown) [Example 10, 3-(3,4-Difluorophenyl)-2-(4-(2-(3-(fluoromethyl)azetidin-1-yl)ethoxy)phenyl)-4-methyl-2H-chromen-6-ol] | 0.41 nM | 1% | – | 2%
CC1=C(c2ccc(F)c(Cl)c2)C(c2ccc(OCCN3CC(CF)C3)cc2)Oc2ccc(O)cc21 (stereo not shown) [Example 13, 3-(3-Chloro-4-fluorophenyl)-2-(4-(2-(3-(fluoromethyl)azetidin-1-yl)ethoxy)phenyl)-4-methyl-2H-chromen-6-ol] | 0.53 nM | 2% | – | 1%
CC1=C(c2ccc(Cl)c(F)c2)C(c2ccc(OCCN3CC(CF)C3)cc2)Oc2ccc(O)cc21 (stereo not shown) [Example 16, 3-(4-Chloro-3-fluorophenyl)-2-(4-(2-(3-(fluoromethyl)azetidin-1-yl)ethoxy)phenyl)-4-methyl-2H-chromen-6-ol] | 0.71 nM | 1% | – | 1%
CC1=C(c2cc(F)c(F)c(F)c2)C(c2ccc(OCCN3CC(CF)C3)cc2)Oc2ccc(O)cc21 (stereo not shown) [Example 19, 2-(4-(2-(3-(Fluoromethyl)azetidin-1-yl)ethoxy)phenyl)-4-methyl-3-(3,4,5-trifluorophenyl)-2H-chromen-6-ol] | 0.42 nM | 0% | – | 0%
CC1=C(c2ccc(C(F)(F)F)cc2)C(c2ccc(OCCN3CC(CF)C3)cc2)Oc2ccc(O)cc21 (stereo not shown) [Example 22, 2-(4-(2-(3-(Fluoromethyl)azetidin-1-yl)ethoxy)phenyl)-4-methyl-3-(4-(trifluoromethyl)phenyl)-2H-chromen-6-ol] | 12 nM | 8% | – | 6%
CC1=C(c2ccc(F)cc2)C(c2ccc(OCCN3CC(CF)C3)cc2)Oc2cc(O)ccc21 (stereo not shown) [Example 25, 2-(4-(2-(3-(Fluoromethyl)azetidin-1-yl)ethoxy)phenyl)-3-(4-fluorophenyl)-4-methyl-2H-chromen-7-ol] | 0.3 nM | 2% | – | 7%
CC1=C(c2ccc(Cl)cc2)C(c2ccc(OCCN3CC(CF)C3)cc2)Oc2cc(O)ccc21 (stereo not shown) [Example 28, 3-(4-Chlorophenyl)-2-(4-(2-(3-(fluoromethyl)azetidin-1-yl)ethoxy)phenyl)-4-methyl-2H-chromen-7-ol] | 0.8 nM | 3% | – | 6%

Continued, in another order:

IC50 (MCF-7 cells; [1]) | ER-α In-Cell Western Assay (SP1): % ER-α remaining relative to Fulvestrant (ER-α) | IC50 (MCF-7 cells; read-out: MCF7 Viability Assay IC50, 5 days' compound exposure, cell printed without unit) | Structure (SMILES) | MCF7 Viability Assay: % Viability relative to Fulvestrant (MCF-7 cells)
26 nM | – | – | CC1=C(c2ccc(F)cc2)[C@@H](c2ccc(OCCN3CC(CF)C3)cc2)Oc2ccc(O)cc21 (single isomer, unassigned) [Example 2] | 3%
0.7 nM | 14% | – | CC1=C(c2ccc(F)c(F)c2)C(c2ccc(OC[C@H](C)N3CC[C@@H](C)C3)cc2)Oc2ccc(O)cc21 (stereo partly drawn) [3-(3,4-difluorophenyl)-4-methyl-2-(4-((S)-2-((R)-3-methylpyrrolidin-1-yl)propoxy)phenyl)-2H-chromen-6-ol, reference compound] | 19%
1.9 nM | 15% | – | CC1=C(c2ccc(Cl)cc2)C(c2ccc(OC[C@H](C)N3CC[C@@H](C)C3)cc2)Oc2ccc(O)cc21 (stereo partly drawn) [3-(4-chlorophenyl)-4-methyl-2-(4-((S)-2-((R)-3-methylpyrrolidin-1-yl)propoxy)phenyl)-2H-chromen-6-ol, reference compound] | 14%
0.4 nM | 18% | – | CC1=C(c2ccc(F)cc2)C(c2ccc(OC[C@H](C)N3CC[C@@H](C)C3)cc2)Oc2ccc(O)cc21 (stereo partly drawn) [3-(4-fluorophenyl)-4-methyl-2-(4-((S)-2-((R)-3-methylpyrrolidin-1-yl)propoxy)phenyl)-2H-chromen-6-ol, reference compound] | 17%
– | 13% | – | CC1=C(c2ccc(F)cc2)[C@@H](c2ccc(OC[C@H](C)N3CC[C@@H](C)C3)cc2)Oc2ccc(O)cc21 [(R)-3-(4-fluorophenyl)-4-methyl-2-(4-((S)-2-((R)-3-methylpyrrolidin-1-yl)propoxy)phenyl)-2H-chromen-6-ol, reference compound] | –
– | 16% | 0.3 nM | CC1=C(c2ccc(F)cc2)[C@H](c2ccc(OC[C@H](C)N3CC[C@@H](C)C3)cc2)Oc2ccc(O)cc21 [(S)-3-(4-fluorophenyl)-4-methyl-2-(4-((S)-2-((R)-3-methylpyrrolidin-1-yl)propoxy)phenyl)-2H-chromen-6-ol, reference compound] | 14%
0.36 nM | – | – | CC1=C(c2ccc(F)cc2)C(c2ccc(OCCN3CC(CF)C3)cc2)Oc2ccc(O)cc21 (stereo not shown) [Example 1, 2-(4-(2-(3-(Fluoromethyl)azetidin-1-yl)ethoxy)phenyl)-3-(4-fluorophenyl)-4-methyl-2H-chromen-6-ol] | 3%

Source: patent US9475798B2, “Azetidine estrogen receptor modulators and uses thereof” (Genentech, Inc., priority 2013, dated 2016)
